Laboratory results taken from the NIST ThermoML archive (doi:10.1016/j.jct.2016.01.002).
± gives the expanded uncertainty stated by the source.

Test: xn = mol fraction of the nth substance listed
Conditions: 100 kPa, Liquid; for electrical conductivity: Direct current cell with electrodes; for mass density: Vibrating tube method; for viscosity: Concentric cylinders viscometry

[Cl][Fe]([Cl])[Cl] [ferric chloride] + CCCCn1cc[n+](C)c1.[Cl-]
Conditions	electrical conductivity [S/m]	mass density [kg/m3]	viscosity [mPa·s]
293.15 K, x1 = 0.3704	0.1033 ± 0.001	1279.5 ± 7.3	–
293.15 K, x1 = 0.4	0.172 ± 0.002	1299.3 ± 7.4	–
293.15 K, x1 = 0.4348	0.306 ± 0.003	1322.8 ± 7.5	–
293.15 K, x1 = 0.4545	0.406 ± 0.004	1337.1 ± 7.6	–
293.15 K, x1 = 0.4762	0.541 ± 0.005	1352.4 ± 7.7	–
293.15 K, x1 = 0.5	0.722 ± 0.007	1369.9 ± 7.8	–
293.15 K, x1 = 0.5238	0.675 ± 0.007	1391.6 ± 7.9	–
293.15 K, x1 = 0.5652	0.626 ± 0.006	1433.4 ± 8.2	–
293.15 K, x1 = 0.6	0.604 ± 0.006	1468.1 ± 8.4	–
298.15 K, x1 = 0.3704	0.1436 ± 0.0014	1275.8 ± 7.2	195.6 ± 9.6
298.15 K, x1 = 0.4	0.228 ± 0.002	1295.2 ± 7.4	123 ± 5
298.15 K, x1 = 0.4348	0.387 ± 0.004	1318.7 ± 7.5	70.2 ± 2.3
298.15 K, x1 = 0.4545	0.502 ± 0.005	1332.9 ± 7.6	51.1 ± 1.5
298.15 K, x1 = 0.4762	0.658 ± 0.007	1348.3 ± 7.7	38.7 ± 1.1
298.15 K, x1 = 0.5	0.864 ± 0.009	1365.7 ± 7.8	31.2 ± 0.8
298.15 K, x1 = 0.5238	0.809 ± 0.008	1387.4 ± 7.9	30.1 ± 0.8
298.15 K, x1 = 0.5652	0.747 ± 0.007	1428.8 ± 8.2	28.4 ± 0.8
298.15 K, x1 = 0.6	0.719 ± 0.007	1463.5 ± 8.4	27.4 ± 0.7
303.15 K, x1 = 0.3704	0.192 ± 0.002	1271.9 ± 7.2	–
303.15 K, x1 = 0.4	0.295 ± 0.003	1291.2 ± 7.3	–
303.15 K, x1 = 0.4348	0.478 ± 0.005	1314.4 ± 7.5	–
303.15 K, x1 = 0.4545	0.61 ± 0.006	1328.8 ± 7.6	–
303.15 K, x1 = 0.4762	0.786 ± 0.008	1343.8 ± 7.7	–
303.15 K, x1 = 0.5	1.011 ± 0.01	1361.4 ± 7.8	–
303.15 K, x1 = 0.5238	0.952 ± 0.01	1383.4 ± 7.9	–
303.15 K, x1 = 0.5652	0.878 ± 0.009	1424.3 ± 8.1	–
303.15 K, x1 = 0.6	0.84 ± 0.008	1458.4 ± 8.3	–
308.15 K, x1 = 0.3704	0.25 ± 0.003	1268.1 ± 7.2	–
308.15 K, x1 = 0.4	0.371 ± 0.004	1287.4 ± 7.3	–
308.15 K, x1 = 0.4348	0.582 ± 0.006	1310.2 ± 7.5	–
308.15 K, x1 = 0.4545	0.728 ± 0.007	1324.8 ± 7.5	–
308.15 K, x1 = 0.4762	0.926 ± 0.009	1339.7 ± 7.6	–
308.15 K, x1 = 0.5	1.18 ± 0.012	1357.3 ± 7.7	–
308.15 K, x1 = 0.5238	1.105 ± 0.011	1378.9 ± 7.9	–
308.15 K, x1 = 0.5652	1.017 ± 0.01	1420 ± 8.1	–
308.15 K, x1 = 0.6	0.973 ± 0.01	1454.3 ± 8.3	–
313.15 K, x1 = 0.3704	0.316 ± 0.003	1264.2 ± 7.2	–
313.15 K, x1 = 0.4	0.457 ± 0.005	1283.3 ± 7.3	–
313.15 K, x1 = 0.4348	0.696 ± 0.007	1306.5 ± 7.4	–
313.15 K, x1 = 0.4545	0.858 ± 0.009	1320.6 ± 7.5	–
313.15 K, x1 = 0.4762	1.07 ± 0.011	1335.6 ± 7.6	–
313.15 K, x1 = 0.5	1.35 ± 0.014	1353.1 ± 7.7	–
313.15 K, x1 = 0.5238	1.26 ± 0.013	1374.5 ± 7.8	–
313.15 K, x1 = 0.5652	1.16 ± 0.012	1415.6 ± 8.1	–
313.15 K, x1 = 0.6	1.114 ± 0.011	1449.7 ± 8.3	–
318.15 K, x1 = 0.3704	0.394 ± 0.004	1260.6 ± 7.2	–
318.15 K, x1 = 0.4	0.556 ± 0.006	1279.6 ± 7.3	–
318.15 K, x1 = 0.4348	0.823 ± 0.008	1302.4 ± 7.4	–
318.15 K, x1 = 0.4545	0.998 ± 0.01	1316.7 ± 7.5	–
318.15 K, x1 = 0.4762	1.233 ± 0.012	1331.6 ± 7.6	–
318.15 K, x1 = 0.5	1.535 ± 0.015	1349 ± 7.7	–
318.15 K, x1 = 0.5238	1.44 ± 0.014	1370.4 ± 7.8	–
318.15 K, x1 = 0.5652	1.325 ± 0.013	1411.2 ± 8.1	–
318.15 K, x1 = 0.6	1.26 ± 0.013	1445.3 ± 8.3	–
323.15 K, x1 = 0.3704	0.483 ± 0.005	1256.7 ± 7.1	–
323.15 K, x1 = 0.4	0.666 ± 0.007	1275.7 ± 7.3	–
323.15 K, x1 = 0.4348	0.961 ± 0.01	1298.5 ± 7.4	–
323.15 K, x1 = 0.4545	1.15 ± 0.01	1312.6 ± 7.5	–
323.15 K, x1 = 0.4762	1.4 ± 0.014	1327.5 ± 7.6	–
323.15 K, x1 = 0.5	1.726 ± 0.017	1344.7 ± 7.7	–
323.15 K, x1 = 0.5238	1.623 ± 0.016	1366.2 ± 7.8	–
323.15 K, x1 = 0.5652	1.5 ± 0.015	1406.7 ± 8	–
323.15 K, x1 = 0.6	1.423 ± 0.014	1440.7 ± 8.2	–
328.15 K, x1 = 0.3704	0.581 ± 0.006	1253 ± 7.1	–
328.15 K, x1 = 0.4	0.783 ± 0.008	1271.8 ± 7.2	–
328.15 K, x1 = 0.4348	1.108 ± 0.011	1294.6 ± 7.4	–
328.15 K, x1 = 0.4545	1.311 ± 0.013	1308.7 ± 7.4	–
328.15 K, x1 = 0.4762	1.58 ± 0.016	1323.3 ± 7.5	–
328.15 K, x1 = 0.5	1.929 ± 0.019	1340.7 ± 7.6	–
328.15 K, x1 = 0.5238	1.812 ± 0.018	1361.9 ± 7.8	–
328.15 K, x1 = 0.5652	1.67 ± 0.017	1402.4 ± 8	–
328.15 K, x1 = 0.6	1.59 ± 0.016	1436.3 ± 8.2	–
333.15 K, x1 = 0.3704	0.691 ± 0.007	1249.2 ± 7.1	–
333.15 K, x1 = 0.4	0.913 ± 0.009	1267.8 ± 7.2	–
333.15 K, x1 = 0.4348	1.27 ± 0.013	1290.7 ± 7.3	–
333.15 K, x1 = 0.4545	1.48 ± 0.015	1304.6 ± 7.4	–
333.15 K, x1 = 0.4762	1.76 ± 0.018	1319.5 ± 7.5	–
333.15 K, x1 = 0.5	2.14 ± 0.021	1336.5 ± 7.6	–
333.15 K, x1 = 0.5238	2.014 ± 0.02	1357.7 ± 7.7	–
333.15 K, x1 = 0.5652	1.85 ± 0.019	1398 ± 8	–
333.15 K, x1 = 0.6	1.76 ± 0.018	1431.8 ± 8.2	–
338.15 K, x1 = 0.3704	0.814 ± 0.008	1245.5 ± 7.1	–
338.15 K, x1 = 0.4	1.05 ± 0.011	1263.9 ± 7.2	–
338.15 K, x1 = 0.4348	1.436 ± 0.014	1286.8 ± 7.3	–
338.15 K, x1 = 0.4545	1.66 ± 0.017	1300.6 ± 7.4	–
338.15 K, x1 = 0.4762	1.96 ± 0.02	1315.5 ± 7.5	–
338.15 K, x1 = 0.5	2.35 ± 0.024	1332.3 ± 7.6	–
338.15 K, x1 = 0.5238	2.219 ± 0.022	1353.2 ± 7.7	–
338.15 K, x1 = 0.5652	2.042 ± 0.02	1393.7 ± 8	–
338.15 K, x1 = 0.6	1.936 ± 0.019	1427.3 ± 8.2	–
343.15 K, x1 = 0.3704	0.949 ± 0.01	1241 ± 7	–
343.15 K, x1 = 0.4	1.208 ± 0.012	1260.3 ± 7.2	–
343.15 K, x1 = 0.4348	1.614 ± 0.016	1282.6 ± 7.3	–
343.15 K, x1 = 0.4545	1.85 ± 0.019	1296.7 ± 7.4	–
343.15 K, x1 = 0.4762	2.16 ± 0.022	1311.3 ± 7.5	–
343.15 K, x1 = 0.5	2.58 ± 0.03	1328.3 ± 7.6	–
343.15 K, x1 = 0.5238	2.435 ± 0.024	1349.2 ± 7.7	–
343.15 K, x1 = 0.5652	2.24 ± 0.02	1389.3 ± 7.9	–
343.15 K, x1 = 0.6	2.12 ± 0.02	1422.9 ± 8.1	–
